Like-named read-outs stand apart in the source and are kept apart here.
Tests used:
KRAS-WT = KRAS-WT (Homo sapiens, UniProt P01116); assay: SOS-catalyzed nucleotide exchange assay (Procedure A, TR-FRET), KRAS-WT; format: biochemical
Outline: (§1)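 Biotinylated RAS (KRAS-G12C carries C51S/C80L/C118S; others WT background) preloaded with Bodipy-GDP plus Tb-streptavidin, preincubated with compound 60 min at RT, then human SOS and 3 mM GTP added. Final RAS/SOS: G12C 3 nM/40 nM, 60 min; WT 1 nM/40 nM, 60 min; G12V 1.25 nM/160 nM, 90 min; NRAS 1.25 nM/40 nM, 60 min. TR-FRET 520/495 ratio normalized to DMSO and saturating inhibitor; 10-point curves fit four-parameter logistic.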

KRAS-G12D = KRAS-G12D (Homo sapiens, UniProt P01116, G12D); assay: SOS-catalyzed nucleotide exchange assay (Procedure A, TR-FRET), KRAS-G12D; format: biochemical
Chain of KRAS-G12D (P01116 with tags, fused parts or gaps isoform P01116-2 G12D): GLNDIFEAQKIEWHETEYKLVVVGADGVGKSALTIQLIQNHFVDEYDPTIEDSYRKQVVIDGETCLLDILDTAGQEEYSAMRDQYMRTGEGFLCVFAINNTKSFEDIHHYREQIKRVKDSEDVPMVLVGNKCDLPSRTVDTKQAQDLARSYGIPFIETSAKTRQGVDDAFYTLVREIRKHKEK
Outline: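 Signal ratio (520/495 nm, excitation 340 nm) reports Bodipy-GDP retention on biotinylated RAS after SOS-catalyzed exchange with 3 mM GTP. SOS was 40 nM, except 160 nM for G12V. Room-temperature exchange lasted 60 min (90 min for G12V), following a 60 min compound preincubation.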

KRAS-G12V = KRAS-G12V (Homo sapiens, UniProt P01116, G12V); assay: SOS-catalyzed nucleotide exchange assay (Procedure A, TR-FRET), KRAS-G12V; format: biochemical
Chain of KRAS-G12V (P01116 with tags, fused parts or gaps isoform P01116-2 G12V): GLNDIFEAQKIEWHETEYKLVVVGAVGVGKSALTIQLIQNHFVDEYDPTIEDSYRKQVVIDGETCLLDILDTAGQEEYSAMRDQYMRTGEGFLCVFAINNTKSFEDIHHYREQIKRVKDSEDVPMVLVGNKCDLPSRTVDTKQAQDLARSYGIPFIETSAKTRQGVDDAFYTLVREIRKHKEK
Outline: as §1

MKN-1 cells = assay: Cellular phospho-ERK assay, MKN-1 cells (amplified wild-type KRAS); format: cell-based; conditions: Homo sapiens, read-out: MKN1 pERK IC50
Description: (§2) Procedure for Cellular Phospho-ERK Assay in KRAS Wild Type and Mutant (G12D, G12V) Cell Lines
(§3) MKN-1 cells (JCRB JCRB0252) containing amplified wild-type KRAS, were cultured in growth medium that contains RPMI 1640-GlutaMAX™-I (ThermoFisher Scientific 61870) containing 10% heat inactivated fetal bovine serum (ThermoFisher Scientific 10091148), 1 mM sodium pyruvate and 10 mM HEPES. PANC08.13 cells (ATCC® CRL-2551™), containing homozygous KRAS-G12D activating mutation, were cultured in growth medium made of RPMI1640-GlutaMAX™-I (ThermoFisher Scientific 61870) containing 15% heat inactivated fetal bovine serum (ThermoFisher Scientific 10091148)). AsPC-1 cells (ATCC® CRL-1682™), containing homozygous KRAS-G12D activating mutation, were cultured in T150 flask in growth medium (RPMI medium 1640-GlutaMAX™-I (ThermoFisher Scientific 61870) containing 10% fetal bovine serum (ThermoFisher Scientific 10091148)). SW620 cells (ATCC® […]), containing homozygous KRAS-G12V activating mutation, were cultured in growth medium that contains RPMI 1640-GlutaMAX™-I (ThermoFisher Scientific 61870) containing 10% heat inactivated fetal bovine serum (ThermoFisher Scientific 10091148).
(§4) Cells for the assay were harvested in growth medium after TrypLE (ThermoFisher scientific 12604021) digestion and were seeded in a 384-well collagen coated cell culture plate (Corning 356702) at a density of 10,000-15,000 cells/20 μL/well, and incubated at 37° C., 5% CO2 overnight. The compound (with 10 mM stock concentration) dose-response titrations were prepared [30 μM final ERK detection assay concentration and 1:3 dilutions, 10-point dose response] and appropriate amounts (270 nL) of test compounds were dispensed in a 384-well intermediate plate using an Echo 550 liquid handler. 30 μL/well of RPMI medium 1640-GlutaMAX™—I was added to the intermediate plate and the contents of the intermediate plate (10 μL/well) were then transferred to the 384-well collagen coated cell culture plate, which was incubated at 37° C., 5% CO2 for 2 hours. After removal of medium from the collagen coated cell culture plate, cells were lysed in lysis buffer from Alpha SureFire® Ultra™ Multiplex p-ERK and total ERK assay kit (PerkinElmer MPSU-PTERK) containing Halt™ Protease and Phosphatase inhibitor cocktail (ThermoFisher Scientific 78446) at room temperature with constant shaking at 300 rpm for 30 minutes. The cell lysates were then transferred to an OptiPlate-384 plate (PerkinElmer 6005620), and the phosphorylation of ERK (p-ERK) and total ERK levels were detected by Alpha SureFire® Ultra™ Multiplex p-EEK kit and total ERK assay kit (PerkinElmer MPSU-PTERK) following the manufacturer's protocol. Assay plates were read on a En Vision Multimode Plate Reader (PerkinElmer), and the ratio of p-ERK vs. total ERK in each well was used as the final readout. Dose response curves were analyzed using a 4-parameter logistic model to calculate IC50 values using Spotfire software.

AsPC-1 cells = assay: Cellular phospho-ERK assay, AsPC-1 cells (homozygous KRAS-G12D); format: cell-based; conditions: Homo sapiens, read-out: AsPC1 pERK IC50
Outline: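 Inhibition of ERK phosphorylation was determined after treating attached cells with compound for 2 h; top concentration 30 μM, serial 1:3 dilution. Each well's p-ERK:total ERK ratio, read by SureFire Ultra, was fitted with a four-parameter model for IC50.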

SW620 cells = assay: Cellular phospho-ERK assay, SW620 cells (homozygous KRAS-G12V); format: cell-based; conditions: Homo sapiens, read-out: SW620 pERK IC50
Description: as §2, §3, §4

[1] = nucleotide exchange, read-out: KRAS WT GNE IC50
[2] = nucleotide exchange, read-out: KRAS G12D GNE IC50
[3] = nucleotide exchange, read-out: KRAS G12V GNE IC50
[4] = ASPC1, 2 h, 2 hours compound incubation
[5] = amplified wild-type KRAS, 2 hours

Chain of KRAS-WT (P01116 with tags, fused parts or gaps isoform P01116-2): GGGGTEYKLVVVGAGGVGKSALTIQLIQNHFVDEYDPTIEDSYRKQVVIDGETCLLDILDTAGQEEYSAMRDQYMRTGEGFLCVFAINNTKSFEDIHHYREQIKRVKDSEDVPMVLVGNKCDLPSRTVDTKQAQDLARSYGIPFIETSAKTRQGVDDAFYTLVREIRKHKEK

SMILES	IC50 (KRAS-WT; [1]) [nM]	IC50 (KRAS-G12D; [2]) [nM]	IC50 (KRAS-G12V; [3]) [nM]	IC50 (MKN-1 cells; 2 hours compound incubation) [nM]	IC50 (AsPC-1 cells; [4]) [nM]	IC50 (SW620 cells; SW-620, 2 hours compound incubation) [nM]	IC50 (MKN-1 cells; [5]) [nM]	IC50 (AsPC-1 cells; ASPC1, 2 h, KRAS-G12D, 2 hours) [nM]	IC50 (SW620 cells; SW-620, KRAS-G12V, 2 hours) [nM]	IC50 (KRAS-WT; KRAS WT GNE IC50, nucleotide exchange) [nM]	IC50 (KRAS-G12D; KRAS G12D GNE IC50, nucleotide exchange) [nM]	IC50 (KRAS-G12V; KRAS G12V GNE IC50, nucleotide exchange) [nM]	IC50 (AsPC-1 cells; ASPC1, 2 hours compound incubation) [nM]
C[C@@]1(O)COCCN(c2nc(OC[C@@]34CCCN3C[C@]3(CC3(F)F)C4)nc3sc4c(-c5c(C6CC6)c(Cl)cc6[nH]ncc56)nccc4c23)C1 [Ex-212, (6S)-4-(8-(6-chloro-5-cyclopropyl-1H-indazol-4-yl)-2-(((1R,7a'S)-2,2-difluorodihydro-1′H,3′H-spiro[cyclo-propane-1,2′-pyrrol-izin]-7a′(5′H)-yl)-methoxy)pyrido [4′,3′:4,5]thieno[2,3-d]pyrimidin-4-yl)-6-methyl-1,4-oxaze-pan-6-ol]	17.8	4.75	39.8	89.8	67.3	56.1							
C/C=C/c1c(C)cc2[nH]ncc2c1-c1nccc2c1sc1nc(OC[C@@]34CCCN3C[C@H](F)C4)nc(N3CCOC[C@@](C)(O)C3)c12 [Ex-64, (6S)-4-(2-(((2R,7aS)-2-fluorotetrahydro-1H-pyrrolizin-7a(5H)-yl)methoxy)-8-(6-methyl-5-((E)-prop-1-en-1-yl)-1H-indazol-4-yl)pyrido[4′,3′:4,5]thieno [2,3-d]pyrimidin-4-yl)-6-methyl-1,4-oxazepan-6-ol]	250	99.1	163				389	486	294				
Cc1cc2[nH]ncc2c(-c2nccc3c2sc2nc(OC[C@@]45CCCN4C[C@H](F)C5)nc(N4CCOC[C@@](C)(O)C4)c23)c1C1(F)CC1 [Ex-54, (6S)-4-(8-(5-(1-fluorocyclopropyl)-6-methyl-1H-indazol-4-yl)-2-(((2R,7aS)-2-fluorotetrahydro-1H-pyrrolizin-7a(5H)-yl)methoxy)pyrido[4′,3′:4,5]thi-eno[2,3-d)pyrimidin-4-yl)-6-methyl-1,4-oxazepan-6-ol]	10.8	5.06	11.1				56.5	84.6	186				
Cc1cc2[nH]ncc2c(-c2nccc3c2sc2nc(OC[C@@]45CCCN4C[C@H](F)C5)nc(N4CCOC[C@@](C)(O)C4)c23)c1C1(C)CC1 [Ex-62, (6S)-4-(2-(((2R,7aS)-2-fluorotetrahydro-1H-pyrrolizin-7a(5H)-yl)methoxy)-8-(6-methyl-5-(1-methylcyclopropyl)-1H-indazol-4-yl)pyrido[4′,3′:4,5]thieno [2,3-d]pyrimidin-4-yl)-6-methyl-1,4-oxazepan-6-ol]	53.7	29.8	21.7				251	175	131				
CN1CCC[C@@H]1COc1nc(N2CCOC[C@@](C)(O)C2)c2c(n1)sc1c(-c3c(C4CC4)c(C(F)(F)F)cc4[nH]ncc34)nccc12 [Ex-81, (6S)-4-(8-(5-cyclopropyl-6-(trifluoromethyl)-1H-indazol-4-yl)-2-(((R)-1-methylpyrrolidin-2-yl)methoxy)pyrido[4′,3′:4,5]thi-eno[2,3-d]pyrimidin-4-yl)-6-methyl-1,4-oxazepan-6-ol]	164	85.6	86.2					1110					
Cc1cc2[nH]ncc2c(-c2nccn3c2c(Cl)c2nc(OC[C@@]45CCCN4C[C@H](F)C5)nc(N4CCOC[C@@](C)(O)C4)c23)c1C1CC1 (single isomer, unassigned) [Ex-297]	67.8	23.1	57.6					636					
C[C@@H]1CN(C[C@@]2(COc3nc(N4CCOC[C@@](C)(O)C4)c4c(n3)sc3c(-c5c(C6(F)CC6)c(Cl)cc6[nH]ncc56)nccc34)CC2(F)F)CCO1 [Ex-243]	986	87.3	333		943								
C[C@@]1(O)COCCN(c2nc(OC[C@@]34CCCN3C[C@H](F)C4)nc3sc4c(-c5c(-c6ccco6)c(C(F)(F)F)cc6[nH]ncc56)nccc4c23)C1 [Ex-78]	194	94.7	84.8					434					
COCc1cc2[nH]ncc2c(-c2nccc3c2sc2nc(OC[C@@]45CCCN4C[C@H](F)C5)nc(N4CCOC[C@@](C)(O)C4)c23)c1C1CC1 [Ex-50, (6S)-4-(8-(5-cyclopropyl-6-(methoxymethyl)-1H-indazol-4-yl)-2-(((2R,7aS)-2-fluorotetrahydro-1H-pyrrolizin-7a(5H)-yl)methoxy)pyrido[4′,3′:4,5]thi-eno[2,3-d]pyrimidin-4-yl)-6-methyl-1,4-oxazepan-6-ol]	326	243	291					3960					
C[C@@]1(O)COCCN(c2nc(OC[C@@]34CCCN3C[C@H](F)C4)nc3sc4c(-c5c6c(cc7[nH]ncc57)CCC6C(F)(F)F)nccc4c23)C1 (some centres unmarked) [Ex-92]	482	226	340					1860					
C[C@@]1(O)COCCN(c2nc(OC[C@@]34CCCN3C[C@H](F)C4)nc3sc4c(-c5c6c(cc7[nH]ncc57)CCC6=C(F)F)nccc4c23)C1 [Ex-177, (6S)-4-(8-(5-(difluoro-methylene)-1,5,6,7-tetrahydrocyclopenta [f]indazo1-4-yl)-2-(((2R,7aS)-2-fluoro-tetrahydro-1H-pyr-rolizin-7a(5H)-yl)-methoxy)pyrido[4′,3′: 4,5]thieno[2,3-d]pyr-imidin-4-yl)-6-methyl-1,4-oxazepam-6-ol]										77.4	23.1	61.7	248
Cc1cc2[nH]ncc2c(-c2nc(C#N)cc3c2sc2nc(OC[C@@]45CCCN4C[C@H](F)C5)nc(N4CCOC[C@@](C)(O)C4)c23)c1C(F)(F)F [Ex-31, 2-(((2R,7aS)-2-fluorotetrahydro-1H-pyrrolizin-7a(5H)-yl)methoxy)-4-((S)-6-hydroxy-6-methyl-1,4-oxazepan-4-yl)-8-(6-methyl-5-(trifluoromethyl)-1H-indazol-4-yl)pyrido[4′,3′:4,5]thieno[2,3-d]pyrimidine-6-carbonitrile]	571	305	219					1310					

From US20260176289A1, “SMALL MOLECULE INHIBITORS OF KRAS PROTEINS” (Merck Sharp & Dohme LLC, priority 2022, published 2026)
